The test system of this test is mouse MC3T3 H1 osteoblast cultures. In words: Cell adhesion test: adhesion of osteoblast cultures in vitro to peptide-coated material surfaces. The note with it: 50 000 cells/cm^2 inoculated, incubation in serum-free medium at 37° C./95% atmospheric humidity for one hour. In kind it is cell-based. The protocol:
Example for Cell Adhesion Test The adhesion of mouse MC3T3 H1 osteoblast cultures in vitro to peptide-coated material surfaces was investigated. In this test, 50 000 cells/cm^2 were inoculated and, after incubation in serum-free medium at 37° C./95% atmospheric humidity for one hour, the proportion of adhered cells was determined. Cell adhesion rate [%]=adhered cells/inoculated cells×100 The coating of culture surfaces made of polystyrene precoated with bovine serum albumin (BSA) with thiol peptides is disclosed in the prior art (see DE 198 18098 (Merck Patent GmbH), Ex. 2). The coating of PMMA surfaces with acrylate peptides is also described in DE 198 18098, Ex. 3.

Where no end group is shown, it is not given here.

With “Cys-Aca-Aca-Thr-Trp-Tyr-Lys-Ile-Ala ({Cys-Aca-Aca}-TWYKIA) [linear peptide with thiol (Cys) anchor]”, the “cell adhesion rate [%] (adhered cells/inoculated cells×100)” value is on record as 7%. As for “Cys-Aca-Aca-Thr-Trp-Tyr-Lys-Ile-Ala-Phe-Gln-Arg ({Cys-Aca-Aca}-TWYKIAFQR) [linear peptide with thiol (Cys) anchor]”, the “cell adhesion rate [%] (adhered cells/inoculated cells×100)” value amounted to 17%.

For “Cys-Aca-Aca-Thr-Trp-Tyr-Lys-Ile-Ala-Phe-Gln-Arg-Asn-Arg-Lys ({Cys-Aca-Aca}-TWYKIAFQRNRK) [linear peptide with thiol (Cys) anchor]”, the “cell adhesion rate [%] (adhered cells/inoculated cells×100)” value was 101%. Take Gua-Mab-azaGly-Asp-Hda-εAhx-εAhx-Aca: the “cell adhesion rate [%] (adhered cells/inoculated cells×100)” value turned out to be 75%. As for “Lys-Ile-Ala-Phe-Gln-Arg-Asn-Arg-Lys-Aca-Aca-Cys (KIAFQRNRK-{Aca-Aca-Cys}) [linear peptide with thiol (Cys) anchor]”, the “cell adhesion rate [%] (adhered cells/inoculated cells×100)” value turned out to be 96%. The figure for “Phe-Gln-Arg-Asn-Arg-Lys-Aca-Aca-Cys (FQRNRK-{Aca-Aca-Cys}) [linear peptide with thiol (Cys) anchor]” is 13%; for “Thr-Trp-Tyr-Lys-Ile-Ala-Phe-Gln-Arg-Asn-Arg-Lys-Aca-Aca-Cys (TWYKIAFQRNRK-{Aca-Aca-Cys}) [linear peptide with thiol (Cys) anchor]” it is 105%.

Values taken from patent US20040043937A1, “Peptide and peptide mimetic derivatives with integrin-inhibitors properties II” (priority 2000, published 2004).
